Measurements: patent US12358919B2, “Antibacterial compounds” (Universita' degli Studi di Siena, priority 2019, dated 2025)

Experiments:
[1] = system: Bacillus subtilis ATCC 6633; test: MIC, broth microdilution (direct antibacterial activity); assay type: cell-based; conditions: ATCC6633, B. subtilis ATCC 6633, compound alone, 18-24 h, read-out: MIC
Experimental: (§1) Growth inhibition or killing of bacteria was investigated using conventional methods widely described in the scientific literature. Parameters such as the Minimum Inhibitory Concentration (MIC) were determined as described in Clinical Laboratory Standard Institute (CLSI) document M07 “Methods for Dilution Antimicrobial Susceptibility Tests for Bacteria That Grow Aerobically, 11th Edition” (2018). Synergistic activity of the compounds described in the present specification were determined by measuring the variation of the MIC's compound in the absence and presence of a sub-inhibitory concentration of a suitable antibacterial agent, such as polymyxin E1. Furthermore, the Fractional Inhibitory Concentrations (FICs) were measured using a chequerboard analysis to determine the average FIC index (FICI), whose value is known to characterize the interaction between two compounds and/or drugs (≤0.5, synergistic interaction; >0.5 and <2, no interaction, additive effect; ≥2, antagonistic interaction). Furthermore, the selectivity of the compounds was investigated by measuring their cytotoxic effect on mammalian cell lines (e.g. HeLa cells).
(§2) The MIC values were determined using the broth microdilution method as described in document M07 using Mueller-Hinton broth as culture medium and an initial bacterial inoculum size of 5×10^5 CFU/mL, with a final volume of 100 μL per well in a 96-well microplate. Bacterial strains were Bacillus subtilis ATCC 6633, Enterococcus faecalis ATCC 29212, Streptococcus pyogenes ATCC 12344 and Staphylococcus aureus ATCC 25923. The tested compound concentration ranged from 512 to 0.25 mg/L. Plates were incubated for 18-24 hours at 35±2° C. prior to results analysis.

[2] = system: Enterococcus faecalis ATCC 29212; test: as above; assay type: cell-based; conditions: ATCC29212, E. faecalis ATCC 29212, compound alone, 18-24 h, read-out: MIC
Experimental: as §1, §2

[3] = system: Staphylococcus aureus ATCC 25923; test: as above; assay type: cell-based; conditions: ATCC25923, S. aureus ATCC 25923, compound alone, 18-24 h, read-out: MIC
Experimental: as §1, §2

[4] = system: Streptococcus pyogenes ATCC 12344; test: as above; assay type: cell-based; conditions: ATCC12344, S. pyogenes ATCC 12344, compound alone, 18-24 h, read-out: MIC
Experimental: as §1, §2

[5] = system: Acinetobacter baumannii ATCC 17978; test: microbe, parasite or virus in culture; assay type: cell-based; conditions: A. baumannii ATCC 17978
In short: (§3)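 MICs were determined by CLSI M07 broth dilution, for each compound alone and with a fixed sub-inhibitory concentration of polymyxin E1 (colistin). Potentiation fold is the MIC alone divided by the MIC with polymyxin E.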

[6] = system: Escherichia coli CCUG^T; test: microbe, parasite or virus in culture; assay type: cell-based; conditions: E. coli CCUG^T
In short: as §3

[7] = system: Klebsiella pneumoniae ATCC 13833; test: microbe, parasite or virus in culture; assay type: cell-based; conditions: K. pneumoniae ATCC 13833
In short: as §3

[8] = system: E. coli CCUG^T; test: Chequerboard analysis with polymyxin E1 (average FIC index); assay type: cell-based, Escherichia coli; conditions: compound + polymyxin E1
[9] = system: K. pneumoniae ATCC 13833; test: as above; assay type: cell-based, Klebsiella pneumoniae; conditions: compound + polymyxin E1
[10] = system: A. baumannii ATCC 17978; test: as above; assay type: cell-based, Acinetobacter baumannii; conditions: compound + polymyxin E1
[11] = system: Acinetobacter baumannii (N50 strain), multidrug-resistant clinical isolate resistant to polymyxin E1; test: Time-kill curve analysis (bactericidal activity); assay type: cell-based; conditions: compound 32 mg/L + polymyxin E1 2 mg/L
Experimental: FIG. 1: bactericidal activity on Acinetobacter baumannii (N50 strain) of polymyxin E1, 2 mg/L (square); polymyxin E1, 2 mg/L+compound Ib 32 mg/L (triangles); control (circles).
Several methods were used to investigate the synergistic activity of the compounds, including (a) the determination of the MIC in the presence of a sub-inhibitory concentration of a suitable antibacterial agent, (b) the determination of the average FICI using a chequerboard analysis and (c) the time-kill curve analysis of a suitable agent (at a sub-inhibitory concentration) in the absence and presence of the pyrazolo[4,3-b]pyridin-6-carboxamide compound at a fixed concentration of 2 or 8 mg/L.
The kinetics of bacterial killing offers an additional mean to characterize the antibacterial activity of compounds, also in combination with other antimicrobial agents. Compounds or a combination thereof are defined as bactericides when the viable bacterial load is decreased by at least 3 log10 (EUCAST, cit.).
This analysis was carried with a multidrug-resistant Acinetobacter baumannii clinical isolate showing resistance to polymyxin E1. The time-kill curves were generated starting from a bacterial inoculum of 10^5 CFU/mL. Bacterial count was determined at several time intervals in the absence (control) or presence of 2 mg/L polymyxin E1 (corresponding to the resistance breakpoint, EUCAST, cit.) supplemented with 32 mg/L of compound Ib (FIG. 1).

[12] = ratio MICcompound/MICcompound+polymyxin E
[13] = with 0.25xMIC polymyxin E1 (0.12 mg/L)

In the case of `CCCCn1c(=O)c(C(=O)NC23CC4CC(CC(C4)C2)C3)c(O)c2nn(C)cc21` [Ib, N-(Adamantan-1-yl)-4-(1-butyl)-4,5-dihydro-7-hydroxy-2-methyl-5-oxo-2H-pyrazolo[4,3-b]pyridin-6-carboxamide], the MIC [1] is reported as 32 µg/mL, the MIC [2] is reported as 64 µg/mL and the MIC [3] is reported as 64 µg/mL. The MIC [4] was 16 µg/mL, the Potentiation fold [5, 12] was ≥128 and the “MIC in presence of colistin” value ([5]; with 0.25xMIC polymyxin E1 (0.25 mg/L)) was 4 µg/mL. The MIC ([5]; Acinetobacter baumannii, ATCC17978, compound alone, read-out: MIC) was > 512 µg/mL, the Potentiation fold [6, 12] was ≥64 and the “MIC in presence of colistin” value [6, 13] was 8 µg/mL. The MIC ([6]; Escherichia coli, compound alone, read-out: MIC) was > 512 µg/mL, the Potentiation fold [7, 12] was ≥64 and the “MIC in presence of colistin” value [7, 13] was 8 µg/mL. For the same compound, the MIC ([7]; Klebsiella pneumoniae, ATCC13833, compound alone, read-out: MIC) was > 512 µg/mL, the “Average FIC index” value [8] was 0.26 and the “Average FIC index” value [9] was 0.30. For the same compound, the “Average FIC index” value [10] was 0.29, the “reduction in the bacterial viable count” value ([11]; after 30-60 min of incubation) was “more than 3 log 10” and the “viable count at subsequent time intervals” value ([11]; up to 24 hours) was “no viable could be detected”.
